The target in assay [1] is CASTOR1 homodimer-GATOR2 complex (Homo sapiens, UniProt Q8WTX7). The class given is binding.
For assay [2], the target named is CASTOR1-CASTOR2 heterodimer-GATOR2 complex (Homo sapiens, UniProt Q8WTX7). In kind it is binding.

Structures are written as SMILES.

Sequence of CASTOR1 homodimer-GATOR2 complex (Q8WTX7 whole entry): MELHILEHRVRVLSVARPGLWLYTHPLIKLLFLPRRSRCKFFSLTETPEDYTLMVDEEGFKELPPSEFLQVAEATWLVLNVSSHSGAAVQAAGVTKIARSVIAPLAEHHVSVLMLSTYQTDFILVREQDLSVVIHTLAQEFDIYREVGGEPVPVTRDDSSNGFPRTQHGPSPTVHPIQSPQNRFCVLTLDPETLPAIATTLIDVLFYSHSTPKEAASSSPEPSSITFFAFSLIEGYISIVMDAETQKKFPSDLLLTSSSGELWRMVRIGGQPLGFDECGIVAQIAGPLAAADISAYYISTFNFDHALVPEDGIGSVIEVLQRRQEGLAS
Sequence of CASTOR1 homodimer-GATOR2 complex (Q9NXC5 whole entry partner): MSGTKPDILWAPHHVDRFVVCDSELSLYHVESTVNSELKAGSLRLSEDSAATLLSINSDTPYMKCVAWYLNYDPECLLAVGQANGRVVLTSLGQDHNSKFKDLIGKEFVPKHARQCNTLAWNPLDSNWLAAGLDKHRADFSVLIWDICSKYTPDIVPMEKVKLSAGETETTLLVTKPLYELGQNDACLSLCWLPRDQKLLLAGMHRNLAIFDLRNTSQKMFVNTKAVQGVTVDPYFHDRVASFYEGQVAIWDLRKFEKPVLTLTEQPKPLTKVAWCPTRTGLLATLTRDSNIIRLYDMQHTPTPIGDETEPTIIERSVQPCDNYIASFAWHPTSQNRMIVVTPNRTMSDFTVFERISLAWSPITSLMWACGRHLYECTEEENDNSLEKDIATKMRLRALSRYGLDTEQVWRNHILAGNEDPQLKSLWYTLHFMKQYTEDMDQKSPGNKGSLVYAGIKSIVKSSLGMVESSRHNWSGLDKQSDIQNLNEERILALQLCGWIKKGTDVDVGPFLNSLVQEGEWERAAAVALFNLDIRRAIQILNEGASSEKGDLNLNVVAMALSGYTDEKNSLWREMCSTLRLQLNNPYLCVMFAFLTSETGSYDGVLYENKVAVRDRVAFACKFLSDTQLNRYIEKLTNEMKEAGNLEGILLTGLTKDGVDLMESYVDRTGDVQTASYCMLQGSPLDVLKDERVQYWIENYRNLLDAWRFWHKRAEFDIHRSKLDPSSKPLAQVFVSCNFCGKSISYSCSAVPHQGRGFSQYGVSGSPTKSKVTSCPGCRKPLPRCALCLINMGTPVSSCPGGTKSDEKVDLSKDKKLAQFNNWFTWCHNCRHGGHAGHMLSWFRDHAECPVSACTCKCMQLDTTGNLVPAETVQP
Sequence of CASTOR1 homodimer-GATOR2 complex (Q96S15 whole entry partner): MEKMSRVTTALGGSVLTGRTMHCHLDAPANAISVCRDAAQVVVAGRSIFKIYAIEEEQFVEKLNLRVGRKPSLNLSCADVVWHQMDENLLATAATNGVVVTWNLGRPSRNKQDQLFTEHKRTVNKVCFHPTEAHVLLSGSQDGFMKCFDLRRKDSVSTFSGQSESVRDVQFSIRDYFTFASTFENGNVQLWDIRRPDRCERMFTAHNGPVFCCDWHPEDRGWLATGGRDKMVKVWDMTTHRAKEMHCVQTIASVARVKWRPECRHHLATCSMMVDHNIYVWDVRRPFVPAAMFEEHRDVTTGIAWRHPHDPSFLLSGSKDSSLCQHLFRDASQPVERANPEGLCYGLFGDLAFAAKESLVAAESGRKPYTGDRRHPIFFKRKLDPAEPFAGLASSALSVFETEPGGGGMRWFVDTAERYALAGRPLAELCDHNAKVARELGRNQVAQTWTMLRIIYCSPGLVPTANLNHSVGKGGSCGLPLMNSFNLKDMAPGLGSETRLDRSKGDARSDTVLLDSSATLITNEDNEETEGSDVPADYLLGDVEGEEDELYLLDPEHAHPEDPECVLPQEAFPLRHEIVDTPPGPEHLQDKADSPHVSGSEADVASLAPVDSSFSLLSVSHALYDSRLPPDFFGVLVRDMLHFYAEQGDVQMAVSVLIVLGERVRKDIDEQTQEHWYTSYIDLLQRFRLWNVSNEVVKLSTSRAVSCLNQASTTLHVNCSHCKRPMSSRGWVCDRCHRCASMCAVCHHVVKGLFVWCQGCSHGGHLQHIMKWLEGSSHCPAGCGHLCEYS
Sequence of CASTOR1 homodimer-GATOR2 complex (Q6PJI9 whole entry partner): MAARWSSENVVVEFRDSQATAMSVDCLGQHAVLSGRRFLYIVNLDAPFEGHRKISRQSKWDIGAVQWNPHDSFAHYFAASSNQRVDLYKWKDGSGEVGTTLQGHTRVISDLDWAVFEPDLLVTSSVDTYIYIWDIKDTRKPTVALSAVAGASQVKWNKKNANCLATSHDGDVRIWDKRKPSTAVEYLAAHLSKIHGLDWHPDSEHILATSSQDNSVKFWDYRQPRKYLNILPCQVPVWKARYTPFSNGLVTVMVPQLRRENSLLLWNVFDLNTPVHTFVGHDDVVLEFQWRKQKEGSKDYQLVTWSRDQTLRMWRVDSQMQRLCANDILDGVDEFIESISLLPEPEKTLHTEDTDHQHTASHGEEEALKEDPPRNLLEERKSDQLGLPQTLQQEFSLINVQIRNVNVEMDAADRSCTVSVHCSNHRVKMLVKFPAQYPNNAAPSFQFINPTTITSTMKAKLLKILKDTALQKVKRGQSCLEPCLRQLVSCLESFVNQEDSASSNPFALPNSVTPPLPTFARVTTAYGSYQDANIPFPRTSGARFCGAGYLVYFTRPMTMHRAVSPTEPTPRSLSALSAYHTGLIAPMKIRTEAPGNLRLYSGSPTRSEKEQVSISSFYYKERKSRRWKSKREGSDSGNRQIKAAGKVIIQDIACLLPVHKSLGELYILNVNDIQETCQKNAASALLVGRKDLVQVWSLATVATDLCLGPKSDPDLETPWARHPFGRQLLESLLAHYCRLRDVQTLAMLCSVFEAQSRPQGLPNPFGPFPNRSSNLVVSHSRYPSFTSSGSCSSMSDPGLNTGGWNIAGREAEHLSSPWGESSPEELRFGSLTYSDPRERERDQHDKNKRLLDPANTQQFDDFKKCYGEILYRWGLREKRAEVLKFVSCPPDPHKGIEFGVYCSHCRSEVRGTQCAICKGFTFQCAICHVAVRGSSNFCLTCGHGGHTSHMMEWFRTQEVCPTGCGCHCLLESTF
Sequence of CASTOR1 homodimer-GATOR2 complex (Q96EE3 whole entry partner): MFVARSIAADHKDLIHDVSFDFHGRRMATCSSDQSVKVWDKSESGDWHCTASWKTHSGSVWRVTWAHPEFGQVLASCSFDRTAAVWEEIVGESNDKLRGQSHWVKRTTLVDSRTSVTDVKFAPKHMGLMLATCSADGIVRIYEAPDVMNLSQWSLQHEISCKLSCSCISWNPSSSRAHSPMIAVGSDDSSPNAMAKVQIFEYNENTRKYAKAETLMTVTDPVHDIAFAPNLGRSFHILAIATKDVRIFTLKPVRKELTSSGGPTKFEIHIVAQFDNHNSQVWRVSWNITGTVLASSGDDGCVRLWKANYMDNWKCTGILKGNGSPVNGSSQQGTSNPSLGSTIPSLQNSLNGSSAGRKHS
Sequence of CASTOR1 homodimer-GATOR2 complex (P55735 2-322 partner): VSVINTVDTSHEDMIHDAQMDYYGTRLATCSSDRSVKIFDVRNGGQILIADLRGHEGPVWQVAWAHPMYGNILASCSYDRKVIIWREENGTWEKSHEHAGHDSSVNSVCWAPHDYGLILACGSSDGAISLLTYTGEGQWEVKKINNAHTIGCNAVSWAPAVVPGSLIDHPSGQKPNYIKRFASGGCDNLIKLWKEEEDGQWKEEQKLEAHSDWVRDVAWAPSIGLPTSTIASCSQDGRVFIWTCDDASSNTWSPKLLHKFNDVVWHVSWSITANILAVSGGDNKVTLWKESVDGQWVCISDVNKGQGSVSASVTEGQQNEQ

With `N=C(N)NCCC[C@H](N)C(=O)O` [arginine], the concentration for half-maximal inhibition (IC50) in assay [1] and in assay [2] was 20 to 40 µM throughout.

As usually defined, the IC50 is the concentration needed to halve the response being measured. Higher therefore signals lower potency.

Values taken from publication PMC4808398 (Cell, 2016).
